Reference: patent publication US20260001914A1, “MACROCYCLIC PEPTIDES TARGETING KRAS” (Merck Sharp & Dohme LLC, priority 2022, published 2026)
*1 amine or outer side, *2 acyl side, *3 side chain or, on linkers, in order; H or OH if unused. Where a SMILES comes first, the peptide text is derived from it. Bridges are numbered along the chain shown (N, C = ends). [ ]: non-standard residue; d: D form. X34 = O=C(C[C@@H](Cc1ccccc1)C(=O)[*:2])C12CC(CN[*:1])(C1)C2; Phe(4-guanidino) = N=C(N)Nc1ccc(C[C@H](N)C(=O)O)cc1; X23 = O=C([C@H](Cc1ccc(C(F)(F)F)nc1)N[*:1])[*:2]; Ala(pyrimidin-5-yl) = N[C@@H](Cc1cncnc1)C(=O)O; NMe3Pal(6-Me) = CN[C@@H](Cc1ccc(C)nc1)C(=O)O; Ala(thiazol-2-yl) = N[C@@H](Cc1nccs1)C(=O)O; Phe(4-CH2NH2) = NCc1ccc(C[C@H](N)C(=O)O)cc1; X27 = Cc1ccc(C[C@H](N[*:1])C(=O)[*:2])cn1; Leu(4,5-dehydro) = C=C(C)C[C@H](N)C(=O)O; NMeAha = CN[C@@H](CCN=[N+]=[N-])C(=O)O; Nle(5,5-F2) = CC(F)(F)CC[C@H](N)C(=O)O; X40 = CC(C)(F)C[C@H](N[*:1])C(=O)[*:2]; 1Nal = N[C@@H](Cc1cccc2ccccc12)C(=O)O; NHCH2CH2SCH2CO = O=C(CSCCN[*:1])[*:2]; Phe(2-F) = N[C@@H](Cc1ccccc1F)C(=O)O; NMe3Pal = CN[C@@H](Cc1cccnc1)C(=O)O; NMeY = CN[C@@H](Cc1ccc(O)cc1)C(=O)O; X1 = O=C(C12CC(CN[*:1])(C1)C2)[*:2]; NMeCha = CN[C@@H](CC1CCCCC1)C(=O)O; X17 = O=C([C@H](CCCCF)N[*:1])[*:2]; Ala(cPr) = N[C@@H](CC1CC1)C(=O)O; NMeF = CN[C@@H](Cc1ccccc1)C(=O)O; PhLac = O=C(O)[C@@H](O)Cc1ccccc1; 3Pal = N[C@@H](Cc1cccnc1)C(=O)O; 4Pal = N[C@@H](Cc1ccncc1)C(=O)O; d3Pal = N[C@H](Cc1cccnc1)C(=O)O; d(αMeC) = C[C@@](N)(CS)C(=O)O; Ahp(2) = CCCCC[C@H](N)C(=O)O; Cba = N[C@@H](CC1CCC1)C(=O)O; hLeu = CC(C)CC[C@H](N)C(=O)O; NMeAbu = CC[C@H](NC)C(=O)O; X64 = O=C(C#CCN[*:1])[*:2]; αMeC = C[C@](N)(CS)C(=O)O; NMeA = CN[C@@H](C)C(=O)O; Nle = CCCC[C@H](N)C(=O)O; Nva = CCC[C@H](N)C(=O)O; AEEA = NCCOCCOCC(=O)O

Target: KRAS-G12D protein (Homo sapiens, UniProt P01116, G12D)
Sequence (P01116 1-188 isoform P01116-2 G12D): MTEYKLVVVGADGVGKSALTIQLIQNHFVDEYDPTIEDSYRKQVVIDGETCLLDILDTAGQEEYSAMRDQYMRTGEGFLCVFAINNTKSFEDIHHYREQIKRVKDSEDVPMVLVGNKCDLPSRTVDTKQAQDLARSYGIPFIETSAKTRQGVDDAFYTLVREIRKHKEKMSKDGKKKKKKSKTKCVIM
Assay: SOS-mediated nucleotide exchange assay (BODIPY-GDP / Tb-streptavidin TR-FRET)
Type: biochemical

In order of falling EC50:
1. CCCC[C@@H]1NC(=O)[C@H](CCCNC(=N)N)NC(=O)[C@H](Cc2ccccc2)NC(=O)CSCCNC(=O)[C@H](Cc2ccccc2)N(C)C(=O)[C@H](CCCC)NC(=O)[C@H](Cc2ccc(O)cc2)NC(=O)[C@H](CC(C)C)NC1=O [compound 81, cyclo(F-R-Nle-L-Y-Nle-NMeF-Cysteamine-ClAc)] (cyclo(FR[Nle]LY[Nle][NMeF][NHCH2CH2SCH2CO]))  7980 nM
2. CCCC[C@@H]1NC(=O)[C@H](Cc2nccs2)NC(=O)[C@H](C)N(C)C(=O)[C@H](Cc2ccccc2)OC(=O)C23CC(CNC(=O)[C@H](Cc4ccccc4)N(C)C(=O)[C@H](CCCC)NC(=O)[C@H](Cc4ccccc4F)NC1=O)(C2)C3 [compound 320, cyclo(FLac-NMeA-2TzA-Nle-Phe2F-Nle-NMeF-amBCP)] (cyclo([NMeA][Ala(thiazol-2-yl)][Nle][Phe(2-F)][Nle][NMeF][X1][PhLac]))  4360 nM
3. CCCC[C@@H]1NC(=O)[C@H](Cc2cccnc2)NC(=O)[C@H](C)N(C)C(=O)[C@H](Cc2ccccc2)OC(=O)C23CC(CNC(=O)[C@H](CC4CCCCC4)N(C)C(=O)[C@H](CCCC)NC(=O)[C@H](Cc4ccccc4F)NC1=O)(C2)C3 [compound 232, cyclo(FLac-NMeA-3Pal-Nle-Phe2F-Nle-NMeCha-amBCP)] (cyclo([3Pal][Nle][Phe(2-F)][Nle][NMeCha][X1][PhLac][NMeA]))  2930 nM
4. CCCC[C@@H]1NC(=O)[C@H](Cc2cccnc2)NC(=O)[C@H](C)N(C)C(=O)[C@H](Cc2ccc(C)nc2)NC(=O)C23CC(CNC(=O)[C@H](Cc4cccnc4)N(C)C(=O)[C@H](CCCC)NC(=O)[C@H](Cc4ccccc4F)NC1=O)(C2)C3 [compound 164, cyclo(4Me3Pal-NMeA-3Pal-Nle-Phe2F-Nle-NMe3Pal-amBCP)] (cyclo([3Pal][Nle][Phe(2-F)][Nle][NMe3Pal][X1][X27][NMeA]))  2890 nM
5. CCCC[C@@H]1NC(=O)[C@H](Cc2ccc(CN)cc2)NC(=O)[C@H](CCCNC(=N)N)NC(=O)[C@H](Cc2cccc3ccccc23)NC(=O)CSC[C@](C)(C(=O)O)NC(=O)[C@H](Cc2ccccc2)N(C)C(=O)[C@H](CCCC)NC(=O)[C@H](Cc2ccc(O)cc2)NC1=O [compound 144, cyclo(1Nal-R-Phe4CH2NH2-Nle-Y-Nle-NMeF-daMeC-ClAc)] ({CH2CO}-[1Nal]R[Phe(4-CH2NH2)][Nle]Y[Nle][NMeF][d(αMeC)]-OH; thioether N-8)  1460 nM
6. CCCC[C@@H]1NC(=O)[C@H](Cc2ccncc2)NC(=O)[C@H](CCCNC(=N)N)NC(=O)[C@H](Cc2cccc3ccccc23)NC(=O)CSC[C@H](C(=O)O)NC(=O)[C@H](Cc2ccccc2)N(C)C(=O)[C@H](CCC)NC(=O)[C@H](Cc2ccc(O)cc2)NC1=O [compound 140, cyclo(INal-R-4Pal-Nle-Y-Nva-NMeF-dC-ClAc)] ({CH2CO}-[1Nal]R[4Pal][Nle]Y[Nva][NMeF][dC]-OH; thioether N-8)  1170 nM
7. CCCC[C@@H]1NC(=O)[C@H](Cc2ccc(O)cc2)NC(=O)[C@H](CC(C)C)NC(=O)[C@H](Cc2ccc(O)cc2)NC(=O)[C@H](CCCNC(=N)N)NC(=O)[C@H](Cc2ccccc2)NC(=O)CSC[C@@H](C(N)=O)NC(=O)[C@H](Cc2ccccc2)N(C)C1=O [compound 1, cyclo(F-R-Y-L-Y-Nle-NMeF-Cl-ClAc)]  912 nM
8. CCCC[C@@H]1NC(=O)[C@H](Cc2ccc(NC(=N)N)cc2)NC(=O)[C@H](CCCNC(=N)N)NC(=O)[C@H](Cc2cccc3ccccc23)NC(=O)CSC[C@](C)(C(=O)O)NC(=O)[C@H](Cc2ccccc2)N(C)C(=O)[C@H](CCCC)NC(=O)[C@H](Cc2ccc(O)cc2)NC1=O [compound 143, cyclo(INal-R-Phe4Gn-Nlc-Y-Nle-NMeF-daMeC-ClAc)] ({CH2CO}-[1Nal]R[Phe(4-guanidino)][Nle]Y[Nle][NMeF][d(αMeC)]-OH; thioether N-8)  575 nM
9. C=C(C)C[C@@H]1NC(=O)[C@H](CCCC)NC(=O)[C@H](Cc2cccnc2)NC(=O)[C@H](CCCNC(=N)N)NC(=O)[C@H](Cc2ccccc2)NC(=O)CSC[C@@](C)(C(N)=O)NC(=O)[C@H](Cc2cccnc2)N(C)C(=O)[C@H](CCCC)NC1=O [compound 44, cyclo(F-R-3Pal-Nle-deHLeu-Nle-NMe3Pal-aMeCl-ClAc)] ({CH2CO}-FR[3Pal][Nle][Leu(4,5-dehydro)][Nle][NMe3Pal][αMeC]-NH2; thioether N-8)  526 nM
10. CCCCC[C@@H]1NC(=O)[C@H](Cc2ccc(O)cc2)NC(=O)[C@H](CC(C)C)NC(=O)[C@H](Cc2ccc(O)cc2)NC(=O)[C@H](CCCNC(=N)N)NC(=O)[C@H](Cc2ccccc2)NC(=O)CSC[C@@H](C(=O)NCCOCCOCC(=O)NCCOCCOCC(N)=O)NC(=O)[C@H](Cc2ccccc2)N(C)C1=O [compound 58, cyclo(F-R-Y-L-Y-Ahp-NMeF-C4-ClAc)] ({CH2CO}-FRYLY[Ahp(2)][NMeF]C[AEEA][AEEA]-NH2; thioether N-8)  436 nM
11. CCCC[C@@H]1NC(=O)[C@H](Cc2ccc(C(F)(F)F)nc2)NC(=O)[C@H](CCN=[N+]=[N-])N(C)C(=O)[C@H](Cc2ccccc2)OC(=O)C23CC(CNC(=O)[C@H](Cc4cccnc4)N(C)C(=O)[C@H](CCCC)NC(=O)[C@H](Cc4ccccc4F)NC1=O)(C2)C3 [compound 241, cyclo(FLac-NMeDabN3-4CF33Pal-Nle-Phe2F-Nle-NMe3Pal-amBCP)] (cyclo([NMe3Pal][X1][PhLac][NMeAha][X23][Nle][Phe(2-F)][Nle]))  435 nM
12. CCCC[C@@H]1NC(=O)[C@H](Cc2ccccc2F)NC(=O)[C@H](CC2CCC2)NC(=O)[C@@H](Cc2cccnc2)NC(=O)[C@H](CCCNC(=N)N)NC(=O)[C@H](Cc2ccccc2)NC(=O)C#CCNC(=O)[C@H](Cc2cccnc2)N(C)C1=O [compound 104, cyclo(F-R-d3Pal-cBuA-Phe2F-Nle-NMe3Pal-amBYA)] (cyclo(FR[d3Pal][Cba][Phe(2-F)][Nle][NMe3Pal][X64]))  387 nM
13. C[C@H]1C(=O)N[C@@H](Cc2cncnc2)C(=O)N[C@@H](CC2CC2)C(=O)N[C@@H](Cc2ccccc2F)C(=O)NC2CC/C=C\CC[C@@H](C(=O)NCC34CC(C3)(C4)C(=O)O[C@@H](Cc3ccccc3)C(=O)N1C)N(C)C2=O [SEQ ID NO: 182, cyclo(FLac-NMeA-PyrimAla-cPrA-Phe2F-Hag-NMeHag-amBCP)]  225 nM
14. CCCC[C@@H]1NC(=O)[C@H](Cc2cccnc2)NC(=O)[C@H](C)N(C)C(=O)[C@H](Cc2ccccc2)OC(=O)C23CC(CNC(=O)[C@H](Cc4cccnc4)N(C)C(=O)[C@H](CCC)NC(=O)[C@H](Cc4ccccc4F)NC1=O)(C2)C3 [compound 116, cyclo(FLac-NMeA-3Pal-Nle-Phe2F-Nva-NMe3Pal-amBCP)] (cyclo([3Pal][Nle][Phe(2-F)][Nva][NMe3Pal][X1][PhLac][NMeA]))  154 nM
15. CC(C)CC[C@@H]1NC(=O)[C@H](Cc2ccccc2F)NC(=O)[C@H](CC(C)(C)F)NC(=O)[C@H](Cc2cncnc2)NC(=O)[C@H](C)N(C)C(=O)[C@H](Cc2ccccc2)OC(=O)C23CC(CNC(=O)[C@H](Cc4ccccc4)N(C)C1=O)(C2)C3 [compound 136, cyclo(FLac-NMeA-PyrimAla-Leu3F-Phe2F-hL-NMeF-amBCP)] (cyclo([NMeA][Ala(pyrimidin-5-yl)][X40][Phe(2-F)][hLeu][NMeF][X1][PhLac]))  114 nM
16. CCCC[C@@H]1NC(=O)[C@H](Cc2cccnc2)NC(=O)[C@H](CC)N(C)C(=O)[C@H](Cc2ccccc2)OC(=O)C23CC(CNC(=O)[C@H](Cc4cccnc4)N(C)C(=O)[C@H](CCCC)NC(=O)[C@H](Cc4ccccc4F)NC1=O)(C2)C3 [compound 404, cyclo(FLac-NMeAbu-3Pal-Nle-Phe2F-Nle-NMe3Pal-amBCP)] (cyclo([3Pal][Nle][Phe(2-F)][Nle][NMe3Pal][X1][PhLac][NMeAbu]))  29 nM
17. CCCC[C@@H]1NC(=O)[C@H](Cc2cncnc2)NC(=O)[C@H](C)N(C)C(=O)[C@H](Cc2ccccc2)OC(=O)C23CC(CNC(=O)[C@H](Cc4ccc(OC)cc4)N(C)C(=O)[C@H](CCCC)NC(=O)[C@H](Cc4ccccc4F)NC1=O)(C2)C3 [compound 175, cyclo(FLac-NMeA-PyrimAla-Nle-Phe2F-Nle-NMeYOMe-amBCP)] (cyclo([NMeA][Ala(pyrimidin-5-yl)][Nle][Phe(2-F)][Nle][NMeY](Me)[X1][PhLac]))  11 nM
18. CCCC[C@@H]1NC(=O)[C@H](Cc2cncnc2)NC(=O)[C@H](C)N(C)C(=O)[C@H](Cc2ccccc2)OC(=O)C23CC(CNC(=O)[C@H](Cc4ccccc4)N(C)C(=O)[C@H](CCCCF)NC(=O)[C@H](Cc4ccccc4F)NC1=O)(C2)C3 [compound 131, cyclo(FLac-NMeA-PyrimAla-Nle-Phe2F-NleF-NMeF-amBCP)] (cyclo([NMeA][Ala(pyrimidin-5-yl)][Nle][Phe(2-F)][X17][NMeF][X1][PhLac]))  10.1 nM
19. CCCCC[C@@H]1NC(=O)[C@H](Cc2ccc(OC)cc2)NC(=O)[C@H](CC2CCC2)NC(=O)[C@H](Cc2cccnc2)NC(=O)[C@H](CCCNC(=N)N)NC(=O)[C@H](Cc2ccccc2)NC(=O)CSC[C@@](C)(C(N)=O)NC(=O)[C@H](Cc2ccc(C)nc2)N(C)C1=O [compound 377, cyclo(F-R-3Pal-cBuA-TyrOMe-Ahp-NMe3Pal4Me-aMeCl-ClAc)] ({CH2CO}-FR[3Pal][Cba]Y(Me)[Ahp(2)][NMe3Pal(6-Me)][αMeC]-NH2; thioether N-8)  8.11 nM
20. CCCC[C@@H]1NC(=O)[C@H](Cc2cccnc2)NC(=O)[C@H](C)N(C)C(=O)[C@H](Cc2ccccc2)OC(=O)C23CC(CNC(=O)[C@H](Cc4cccnc4)N(C)C(=O)[C@H](CCC(C)C)NC(=O)[C@H](Cc4ccccc4F)NC1=O)(C2)C3 [compound 124, cyclo(FLac-NMeA-3Pal-Nle-Phe2F-hL-NMe3Pal-amBCP)] (cyclo([3Pal][Nle][Phe(2-F)][hLeu][NMe3Pal][X1][PhLac][NMeA]))  2.17 nM
21. C[C@H]1C(=O)N[C@@H](Cc2cncnc2)C(=O)N[C@@H](CC2CC2)C(=O)N[C@@H](Cc2ccccc2F)C(=O)N[C@@H](CCC(C)(F)F)C(=O)N(C)[C@@H](Cc2ccccc2)C(=O)NCC23CC(C2)(C3)C(=O)C[C@@H](Cc2ccccc2)C(=O)N1C [compound 290, cyclo(CPhe-NMeA~PyrimAla-cPrA-Phe2F-Nle3F2-NMeF-amBCP)] (cyclo([Ala(cPr)][Phe(2-F)][Nle(5,5-F2)][NMeF][X34][NMeA][Ala(pyrimidin-5-yl)]))  2 nM
